{"source": "ChEMBL document CHEMBL1157093", "about": "“Lactonecembranoids from Croton laevigatus” (J Nat Prod, 2010)", "test_system": "HeLa", "test": "Antiproliferative activity against human HeLa cells by MTT assay; call rule not given here", "type": "functional, cell-based"}
{"smiles": "C/C1=C\\CC[C@](C)(O)/C=C/[C@]2(C(C)C)CC/C(=C/CC1)C(=O)O2", "note": "(relative stereo) [LAEVIGATLACTON B]", "values": [{"measurement": "IC50", "setting": "Homo sapiens, HeLa, read-out: IC50", "value": 38.4, "unit": "µM"}]}
{"smiles": "C/C1=C\\CC[C@@](C)(O)/C=C/[C@]2(C(C)C)CC/C(=C\\CC1)C(=O)O2", "note": "(relative stereo) [LAEVIGATLACTONE A]", "values": [{"measurement": "IC50", "setting": "hela", "value": "Not Active"}]}
{"smiles": "C/C1=C\\CC[C@](C)(O)/C=C/[C@]2(C(C)C)CC/C(=C\\CC1)C(=O)O2", "note": "(relative stereo) [LAEVIGATLACTONE C]", "values": [{"measurement": "IC50", "setting": "hela", "value": "Not Active"}]}
{"smiles": "C/C1=C\\CC/C(C)=C/[C@@H](O)[C@]2(C(C)C)CC/C(=C\\CC1)C(=O)O2", "note": "(relative stereo) [LAEVIGATLACTONE D]", "values": [{"measurement": "IC50", "setting": "hela", "value": "Not Active"}]}
{"smiles": "CC(C)[C@@]12/C=C/[C@@](C)(O)C/C=C/[C@](C)(O)CC/C=C(\\CC1)C(=O)O2", "note": "(relative stereo) [LAEVIGATLACTONE E]", "values": [{"measurement": "IC50", "setting": "hela", "value": "Not Active"}]}
{"smiles": "CC(C)[C@@]12/C=C/[C@@](C)(O)C/C=C/[C@](C)(OO)CC/C=C(\\CC1)C(=O)O2", "note": "(relative stereo) [LAEVIGATLACTONE F]", "values": [{"measurement": "IC50", "setting": "hela", "value": "Not Active"}]}
{"smiles": "C/C1=C\\C=C(\\C(C)C)CC/C(C(=O)O)=C\\CC/C(C)=C/CC1", "note": "[NEOCROTOCEMBRANEIC ACID]", "values": [{"measurement": "IC50", "setting": "hela", "value": "Not Active"}]}
